# Reference: US20060251703A1, “Composition comprising an edible acid or its acidic salt and the use thereof” (priority 2003, published 2006)
# Structures can show the parent of a compound that is named as a salt.
# Columns and labels:
# [1] = tested on: oxazolone-coated mouse ear; test: Anti-delayed type allergy reaction (oxazolone ear inflammation); format: in vivo; conditions: 1 mg/ear coated, ears weighed after 24 hr; for inhibition in vivo at 1 mg/ear: Mus musculus, topical, read-out: Depression rate (%)
# Method: The weights of testing mice are ranging from 20 g to 30 g. They are coated with 0.1 ml of oxazolone alcohol solution (0.5 w/v %) on the hair cleaned part of abdomen. After five days, each of the listed drugs is dissolved in oxazolone acetone solution (0.5 w/v %), and 10 μl each of the solutions is token by micro pipette to coat on both sides of the right ear. After 24 hr, the mouse is killed by ether and punched a circle area of a diameter of 5.5 mm on both right and left ears in corresponding part by a puncher machine (portions of drug coated and the blank). The punched portions are weighed and the inflammation rates calculated. The control group are coated only with the oxazolone acetone solution (0.5 w/v %). The inflammation depressing rates of each drug are calculated by following equation: Inflammation depressing rate(%)=[(weight of drug coated right ear)−(weight of non-drug-coated left ear)]×100%/(weight of non-drug-coated left ear)
# [2] = tested on: mouse's leaching cell solution (abdominal cavity cells); test: Drug depressing effect on histamine leaching when treated with 48/80 compound; format: cell-based; conditions: testing drug 100(mg/ml); for inhibition at 100000 µg/mL: Mus musculus, read-out: Depression rate (%); for inhibition at 100000 µg/mL / Depression rate (%): 48/80 compound-induced histamine release; for Histamine Releasing rate (%): 48/80 compound, control 90.5, blank 9.0
# Method: This is a comparative testing of drug depressing effect on the amount of leaching histamines when is treated with 48/80 (Sigma, St. MO, USA) compound.
# (1). Preparation of leaching cell solution from mouse body.
# A mouse is killed and bloodletting. Then 10 ml of Locke's solution containing 0.1% bovine serum protein is injected into its abdominal cavity. After abdominal cavity being light massaged, the cavity is cut and the Locke's solution is removed. Cavity is washed with another 5 ml of Locke's solution, and this washed solution is added to the late one. This combined solution is centrifuged at 600 rpm for 5 minutes. The sediments are washed with 5 ml of cool Locke's solution. Adding 3 ml of cold Locke's solution to the washed sediments, then a leached cell solution of abdominal cavity is obtained. The composition of Locke's solution is: NaCL […], KCL 0.2%, CaCL2 0.15%, glucose 1.0%, in w/v, and the rest distillated water.
# (2). Drug depressing effect on the amount of leaching histamines when treated with 48/80 compound.
# Each testing compound listed in the table 1 is dissolved in a Ringer's solution containing 1% NaHCO3, and then diluted with Locke's solution to the indicated concentration. 1.0 ml of each of those solutions in last term is mixed with 0.3 ml of mouse's leaching cell solution and 0.5 ml of Locke's solution. This mixture is cultivated at 37° C. for 5 minutes. Then adding 0.2 ml of Locke's solution of 48/80 compound (1 mg/100 ml) and cultivated at 37° C. for 10 minutes. Then the reaction is stopped by cooling, and centrifuged at 2,500 rpm for 10 minutes. 1.7 ml of decanted solution and 0.3 ml of sediments are obtained. 0.1 ml of water and 0.2 ml of 100% trichloroacetic acid are added to the decanted solution. 1.5 ml of Locke's solution and 0.2 ml of 100% trichloroacetic acid are added to the sediments washed solution. They are cultivated at room temperature for 30 minutes. After cultivation, the mixtures are centrifuged at 3,000 rpm for 15 minutes, respectively. 0.35 ml of each of the former two solutions is sampled. In each sample, 1.65 ml of water, 0.4 ml of 1N NaOH and 0.1 ml of 0.5% OPT (o-phthalic aldehyde) in methanol are added and cultivated at room temperature for 4 minutes. The reaction is stopped by adding 0.2 ml of 2M citric acid. And finally, determine the amount of released histamines in the tested solution by fluorescence method. By the analysis, results of the depression rate of histamines could be calculated.
# Locke's solution is instead of each drug in control group, and instead of both drug and 48/80 compound solution in blank group. The histamine releasing rate (A) can be calculated by following equation. […] Where (Hs) is the total amount of histamine in the decanted solution, and (Hr) is the total amount of histamine in the sediment. (A)=[(Hs)/{(Hs)+(Hr)}]×100%. Then the depression rate is: =100−[(A−A in blank group)/(A−A in control group)]×100%.
# [3] = pH of saliva after ingesting citric acid; format: in vivo, human; conditions: 700 mg citric acid ingested
# Method: Saliva is a kind of humors and, normally, has the pH of around 6.8. For the purpose of reference, to test the pH of the saliva of a person was carried out who had brushed before testing and ingesting 700 mg of citric acid. […]
# xanthine oxidase = test: Inhibition of xanthine oxidase; format: biochemical; conditions: xanthine oxidase 0.01 u/ml, xanthine 5×10^−5M, pH=7.4, UV 295 nm; read-out: IC50 (concentration for depression of 50% activity of oxidase)
# xanthine oxidase, sequence (P47989 whole entry, species assumed): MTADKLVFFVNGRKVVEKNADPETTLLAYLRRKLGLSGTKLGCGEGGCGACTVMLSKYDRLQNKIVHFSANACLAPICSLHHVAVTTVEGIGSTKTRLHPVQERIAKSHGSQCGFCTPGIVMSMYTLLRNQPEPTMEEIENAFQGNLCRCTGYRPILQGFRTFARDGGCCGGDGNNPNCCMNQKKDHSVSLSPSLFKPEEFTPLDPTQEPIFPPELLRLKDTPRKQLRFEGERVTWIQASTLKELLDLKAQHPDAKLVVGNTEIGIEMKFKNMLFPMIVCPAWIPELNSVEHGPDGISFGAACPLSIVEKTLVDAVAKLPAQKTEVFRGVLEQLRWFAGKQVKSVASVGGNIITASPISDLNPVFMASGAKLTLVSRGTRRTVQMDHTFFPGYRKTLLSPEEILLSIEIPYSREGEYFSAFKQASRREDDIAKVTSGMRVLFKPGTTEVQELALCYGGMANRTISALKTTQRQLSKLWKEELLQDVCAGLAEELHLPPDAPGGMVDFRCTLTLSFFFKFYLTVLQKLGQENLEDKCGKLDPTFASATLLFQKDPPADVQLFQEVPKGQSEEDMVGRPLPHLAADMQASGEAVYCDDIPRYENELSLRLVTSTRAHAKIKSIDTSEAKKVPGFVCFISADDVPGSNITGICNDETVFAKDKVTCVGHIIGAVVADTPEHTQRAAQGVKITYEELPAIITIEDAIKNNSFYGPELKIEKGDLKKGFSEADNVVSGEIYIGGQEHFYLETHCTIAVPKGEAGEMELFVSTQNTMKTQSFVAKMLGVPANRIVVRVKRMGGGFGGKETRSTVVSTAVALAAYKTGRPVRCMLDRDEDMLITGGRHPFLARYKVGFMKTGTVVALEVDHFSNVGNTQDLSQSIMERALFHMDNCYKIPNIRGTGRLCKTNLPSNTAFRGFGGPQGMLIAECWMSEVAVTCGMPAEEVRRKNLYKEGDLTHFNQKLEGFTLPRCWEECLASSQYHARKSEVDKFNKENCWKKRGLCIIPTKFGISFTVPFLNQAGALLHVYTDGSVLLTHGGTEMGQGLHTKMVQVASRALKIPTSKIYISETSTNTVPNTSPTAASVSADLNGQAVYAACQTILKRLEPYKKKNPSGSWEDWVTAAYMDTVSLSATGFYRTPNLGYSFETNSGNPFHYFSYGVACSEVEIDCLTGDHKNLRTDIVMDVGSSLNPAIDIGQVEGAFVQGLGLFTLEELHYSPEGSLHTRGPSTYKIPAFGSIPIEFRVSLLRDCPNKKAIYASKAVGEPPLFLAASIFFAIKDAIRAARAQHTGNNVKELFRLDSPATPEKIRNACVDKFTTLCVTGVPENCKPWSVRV
# Method: The production process of peroxide free radical can be tested by Xanthine oxidase substrate in vito (Fridowich, I., J. Biol. Chem., 215, 4053˜4057, 1970). […] The test of inhibiting xanthine oxidase is carried out by the method of H. M. Kalckar (J. Biol. Chem., 167, 429˜443, 1947). The basic principle is xanthine being acted by xanthine oxidase to form uric acid that is quantitative analyzed by photometric method. By the amount of determined uric acid, is calculated the degree of inhibiting effect for the activity of xanthine oxidase.
# The testing process is, adding a final concentration of 0.01 u/ml of xanthine oxidase in 1 cm cell of photometric apparatus, and adding 0.05M (pH=7.4) of phosphoric acid buffer or inhabitant The reaction time is counted from the point at adding xanthene's to a final concentration reaching 5×10^−5M. For reducing the error arose by absorption of liquid in photometric analysis, the compound of xanthine oxidase, xanthine and drug are boiled for the reference. UV selected at 295 nm, data are recorded at an interval of 30 seconds for 2 minutes. The unit of activity change of xanthine oxidase is 0.001M/min. Calculate the inhibiting rate for each addition amount of drug. To use drug concentration (M) as a function of inhibiting rate (%), and to trace the data on a log scale paper, the 50% depression rate of the oxidase (IC50) could be determined by regression line method.
IC50 (xanthine oxidase) [nM],SMILES,inhibition in vivo at 1 mg/ear [1] [%],inhibition at 100000 µg/mL [2] [%],Histamine Releasing rate (%) [2] [%],further results
100,O=C(O)CC(O)(CC(=O)O)C(=O)O [Citric acid],100,100,8.7,pH value of saliva ([3]; testing time 0 minute): 6.8; pH value of saliva ([3]; testing time 20 minute): 6.45; pH value of saliva ([3]; testing time 60 minute): 6.26; pH value of saliva ([3]; testing time 90 minute): 6.6; pH value of saliva ([3]; testing time 120 minute): 6.8
,"CN(C)CCOC(c1ccccc1)c1ccccc1 [Diphenhydramine hydrochloride, reference compound]",20,32.1,64.7,
662,"Nc1nc2ncc(CNc3ccc(C(=O)N[C@@H](CCC(=O)O)C(=O)O)cc3)nc2c(=O)[nH]1 [Folic acid, reference compound]",,,,
101,O=C(O)/C=C/C(=O)O [Fumaric acid],98,100,8.9,
,CC(O)C(=O)O (stereo not drawn) [Lactic acid],97,100,8.9,
112,O=C(O)CC(O)C(=O)O (stereo not drawn) [Malic acid],96,100,9.0,
102,O=C(O)C(O)C(O)C(=O)O (stereo not drawn) [Tartaric acid],97,100,8.9,
,"CC1(C)[C@@H](O[C@H]2O[C@H](C(=O)[O-])[C@@H](O)[C@H](O)[C@H]2O[C@@H]2O[C@H](C(=O)[O-])[C@@H](O)[C@H](O)[C@H]2O)CC[C@]2(C)[C@H]3C(=O)C=C4[C@@H]5C[C@@](C)(C(=O)[O-])CC[C@]5(C)CC[C@@]4(C)[C@]3(C)CC[C@@H]12.[Na+].[Na+].[Na+] [Trisodium glycyrrhizinate, reference compound]",,,65.5,Depression rate (%) [2]: 30.9%
,O=C1O[C@H](CO)[C@@H](O)[C@H](O)[C@H]1O [gluconolactone],97,100,8.9,
,O=C(O)CO [α-hydroxy ethanoic acid],,,9.0,Depression rate (%) [1]: 98%; Depression rate (%) [2]: 100%
,CCCCCCC(O)C(=O)O (stereo not drawn) [α-hydroxy octanoic acid],94,100,9.0,
